Series [1] has as its target T1, Nuclear receptor ROR-gamma (Homo sapiens, UniProt P51449).
T1 sequence (P51449 whole entry): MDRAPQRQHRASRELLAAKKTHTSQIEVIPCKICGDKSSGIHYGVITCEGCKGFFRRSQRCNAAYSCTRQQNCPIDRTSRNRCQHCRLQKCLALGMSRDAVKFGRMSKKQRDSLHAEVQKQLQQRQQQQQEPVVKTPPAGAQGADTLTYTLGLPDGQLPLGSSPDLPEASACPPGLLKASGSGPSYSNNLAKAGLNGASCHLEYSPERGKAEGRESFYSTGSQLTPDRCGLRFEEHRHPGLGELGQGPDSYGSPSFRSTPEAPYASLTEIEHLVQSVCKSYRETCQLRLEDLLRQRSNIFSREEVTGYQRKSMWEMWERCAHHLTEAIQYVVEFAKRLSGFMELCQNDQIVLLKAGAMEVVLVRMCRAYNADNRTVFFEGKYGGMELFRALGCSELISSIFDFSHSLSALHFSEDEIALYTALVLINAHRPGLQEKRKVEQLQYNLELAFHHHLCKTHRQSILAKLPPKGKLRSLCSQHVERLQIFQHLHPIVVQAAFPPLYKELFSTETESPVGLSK
As to the kind of experiment: Inhibition of GAL4 DNA-binding domain fused RORgamma (unknown origin) transfected in CHO-K1 cells incubated for 2 days by luciferase assay. It is filed as cell-based.

Series [2] is described as follows: Lipophilicity, logD of compound by RP-HPLC analysis. It is filed as physicochemical.
Series [3] is described as follows: Metabolic stability in human liver microsomes assessed as compound remaining at 5 umol/L measured after 60 mins by UPLC/MS analysis. In kind it is ADME, Microsome. The note with it: dose 5 µmol/L, read-out: Stability.
The nature of series [4]: Apparent permeability in human Caco-2 cells at 25 umol/L incubated for 2 hrs by LC/MS/MS analysis. It is filed as ADME, cell-based. The note with it: dose 25 µmol/L. On the technique in general: Caco-2 monolayers are a common model of the intestinal barrier.
Series [5] can be described thus: Elimination half life in CD(SD) rat at 1 mg/kg, iv administered as single dose and measured after 24 hrs. In kind it is ADME, organism-based. The settings on record: in vivo, read-out: beta t1/2 (converted).
A short description of series [6]: Total body clearance in CD(SD) rat at 1 mg/kg, iv administered as single dose and measured after 24 hrs. It is filed as ADME, organism-based. The note with it: in vivo.
A short description of series [7]: Volume of distribution at steady state in CD(SD) rat at 1 mg/kg, iv administered as single dose and measured after 24 hrs. The note with it: in vivo, read-out: Vdss. In kind it is ADME, organism-based.
Series [8] is described as follows: AUCinfinity in CD(SD) rat at 3 mg/kg, po administered as single dose and measured after 24 hrs. It is filed as ADME, organism-based. The note with it: in vivo.
Series [9] in a line: MRT in CD(SD) rat at 3 mg/kg, po administered as single dose and measured after 24 hrs. The settings on record: in vivo. It is filed as ADME, organism-based.
Series [10] in a line: Oral bioavailability in CD(SD) rat at 3 mg/kg administered as single dose and measured after 24 hrs. It is filed as ADME, organism-based. The settings on record: in vivo.

From ChEMBL document CHEMBL5537159, “Discovery and SAR of JTE-151: A Novel RORγ Inhibitor for Clinical Development” (J Med Chem, 2024) come the findings set out here.

For the molecule `C=C(C)c1c([C@@H](CC(=O)O)CC(=O)Nc2ccc(C)cc2C)noc1[C@H]1C[C@@H](CC(C)C)C1`, a half-maximal response in [1] (EC50) required 1200 nM. The logD (commonly the decadic logarithm of the distribution of all forms, ionised or not, between an organic phase and buffer at a given pH) in series [2] is 4.3. In addition, the remaining at 1 h, 5 µM in series [3] is 54%. The Papp (commonly the rate of passage across a membrane or cell layer, normalised by area and donor concentration) at 2 h, 25 µM in series [4] came out at 27.6 ×10⁻⁶ cm/s.
Turning to `Cc1cc(F)ccc1NC(=O)C[C@H](CC(=O)O)c1noc([C@H]2C[C@@H](CC(C)C)C2)c1C1CC1`, a half-maximal response in series [1] (EC50) required 64 nM. In series [2], this molecule displayed a logD of 3.9. In addition, the remaining at 1 h, 5 µM in series [3] is 82%. The Papp at 2 h, 25 µM in series [4] was determined as 38 ×10⁻⁶ cm/s.
On to `Cc1ccc(NC(=O)C[C@H](CC(=O)O)c2noc([C@H]3C[C@@H](CC(C)C)C3)c2C(C)C)c(C)c1`, for which the EC50 (usually the concentration needed to bring the measured effect to its halfway point) in [1] was 660 nM. This molecule also registered a logD in series [2] of 4.4. The remaining at 1 h, 5 µM in series [3] came out at 37%. Further, the Papp at 2 h, 25 µM in series [4] stood at 23.3 ×10⁻⁶ cm/s.
Consider `Cc1ccc(NC(=O)CC(Cc2ncco2)c2nnc([C@H]3C[C@@H](CC(C)C)C3)n2C2CC2)c(C)c1` (mixture of isomers), for which the EC50 in series [1] is less than 32 nM. This molecule also yielded a log distribution coefficient (logD) in series [2] of 4.5. Besides, the remaining at 1 h, 5 µM in series [3] was 75%. Also, the Papp at 2 h, 25 µM in [4] amounted to 27 ×10⁻⁶ cm/s.
Molecule `Cc1ccc(NC(=O)CC(CC(=O)O)c2nnc([C@H]3C[C@@H](CC(C)C)C3)n2C2CC2)c(C)c1` (mixture of isomers) had an EC50 in series [1] of 3000 nM. The molecule further registered a logD in series [2] of 3.2. The remaining at 1 h, 5 µM in series [3] was determined as 103%. Besides, in series [4], the Papp at 2 h, 25 µM was 0.1 ×10⁻⁶ cm/s.
In series [1], `Cc1ccc(NC(=O)C[C@H](CCC(=O)O)n2nnc([C@H]3C[C@@H](CC(C)(C)C)C3)c2C2CC2)c(Cl)c1` showed an EC50 of 22 nM. The molecule further had a logD in series [2] of 4.3. The remaining at 1 h, 5 µM in series [3] worked out at 73%. The Papp at 2 h, 25 µM in series [4] turned out to be 22.6 ×10⁻⁶ cm/s. In series [5], the half-life was 1.5 h. For the same molecule, the clearance (in general, the volume of plasma or blood freed of the substance per unit of time) in series [6] was 30 mL/min/kg. For the same molecule, the Vd in series [7] stood at 1.4 L/kg. Moreover, the AUC(0-inf) (in general, total exposure, with the tail of the curve extrapolated) in series [8] was 2 µM·h. Besides, the MRT (as a rule, the average time that molecules of a dose stay in the body) in [9] is 2.5 h. Moreover, the bioavailability – broadly, dose-corrected exposure relative to a reference, in per cent – in [10] was found to be 61%.
`Cc1ccc(NC(=O)C[C@H](CC(=O)O)c2noc([C@H]3C[C@@H](CC(C)(C)C)C3)c2C2CC2)c(C)c1` (mixture of isomers) came in with an EC50 in series [1] of 29 nM. In addition, the logD in [2] amounted to 4.5. Besides, the remaining at 1 h, 5 µM in series [3] was 82%. Also, the Papp at 2 h, 25 µM in series [4] is 24.6 ×10⁻⁶ cm/s.
Regarding `Cc1ccc(NC(=O)C[C@H](Cc2nccs2)c2nnc([C@H]3C[C@@H](CC(C)C)C3)n2C2CC2)c(C)c1`, the EC50 in series [1] is less than 32 nM. Also, the logD in series [2] was 4.6. In addition, in [3], the remaining at 1 h, 5 µM is 69%. The Papp at 2 h, 25 µM in series [4] was found to be 29.4 ×10⁻⁶ cm/s.
In [1], `Cc1ccc(C)c(NC(=O)C[C@H](CC(=O)O)c2noc([C@H]3C[C@@H](CC(C)C)C3)c2C2CC2)c1` displayed an EC50 of 65 nM. The same molecule had a logD in series [2] of 4.2. Further, the remaining at 1 h, 5 µM in series [3] amounted to 76%. The Papp at 2 h, 25 µM in series [4] was 35.5 ×10⁻⁶ cm/s.
For `Cc1ccc(NC(=O)CC(c2nnc([C@H]3C[C@@H](CC(C)C)C3)n2C2CC2)C2CNC2)c(C)c1.Cl` (mixture of isomers) the same measures were more than 20000 nM, 3.7, 95% and less than 0.1 ×10⁻⁶ cm/s.
As to `Cc1ccc(NC(=O)C[C@H](CCC(=O)O)c2nnn([C@H]3C[C@@H](CC(C)(C)C)C3)c2C2CC2)c(Cl)c1`, in series [2], the logD was determined as 4.2. The remaining at 1 h, 5 µM in [3] is 86%. Moreover, in series [4], the Papp at 2 h, 25 µM amounted to 30.9 ×10⁻⁶ cm/s. Also, the half-life in series [5] is 1.5 h. Further, the clearance in [6] is 16.5 mL/min/kg. Besides, in series [7], the Vd was found to be 0.67 L/kg. The same molecule gave an AUC(0-inf) in series [8] of 2.8 µM·h. Further, the MRT in series [9] is 3.6 h. The molecule further returned a bioavailability in [10] of 46%.
